Assay results reported in patent publication US4853412A, “N-[[6-methoxy-5-(trifluoromethyl)-1-naphthalenyl]-[substituted imino]methyl]-n-methylglycines” (American Home Products Corporation, priority 1987, dated 1989).

Columns and labels:
[1] = tested on: lenses of rats fed galactose; assay: galactosemic rats: lowering of galactitol (dulcitol) accumulation in the lens; format: in vivo, rat (Sprague-Dawley); conditions: four days, vs untreated galactosemic rats
Text: (§1) The aldose reductase inhibiting property of the compounds of this invention and the utilization of the compounds in preventing, diminishing and alleviating diabetic complications by lowering polyols accumulation are demonstrable in experiments using galactosemic rats, see Dvornik et al, Science, 182, 1146 (1973). Such experiments are exemplified hereinbelow after the listing of the following general comments pertaining to these experiments:
(§2) (a) Four or more groups of six male rats, 50-70 g, Sprague-Dawley strain, were used. The first group, the control group, was fed a mixture of laboratory chow (rodent Laboratory Chow, Purina) and glucose at 20% (w/w %) concentration. The untreated galactosemic group and the drug-treated groups were fed a similar diet in which galactose is substituted for glucose. The test compound was either admixed to the diet or administered by gavage. In experiments involving compound administration in the diet, the average dose administered was calculated from the actual food intake of the animals in each group. The concentration of galactose in the diet of the treated groups was the same as that for the untreated galactosemic group.
(§3) (b) After four days, the animals were killed by decapitation. The eyeballs were removed and punctured with a razor blade; the freed lenses were rolled gently on filter paper and weighed. The sciatic nerves were dissected as completely as possible and weighed. Both tissues when frozen can be kept up to two weeks before being analyzed for galactitol.
(§4) (c) The polyol determination was performed by a modification of the procedure of M. Kraml and L. Cosyns, Clin. Biochem., 2,373 (1969). Only two minor reagent changes were made: (a) The rinsing mixture was an aqueous 5% (w/v) trichloroacetic acid solution and (b) the stock solution was prepared by dissolving 25 mg of dulcitol in 100 mL of an aqueous trichloroacetic acid solution. [N.B.: For each experiment the average value found in the tissue from rats fed the glucose diet was subtracted from the individual values found in the corresponding tissue in galactose-fed rats to obtain the amount of polyol accumulated.] The aldose reductase inhibiting effects of the compounds of formula (I) were also tested by employing an in vitro testing procedure similar to that described by S. Hayman and J. H. Kinoshita, J. Biol. Chem., 240, 877 (1965). In the present case the procedure of Hayman and Kinoshita was modified in that the final chromatography step was omitted in the preparation of the enzyme from bovine lens.
(§5) The figures under L and N represent the percentage decrease of galactitol accumulation in the tissues of the lens and sciatic nerve, respectively, for treated rats as compared to untreated rats.

aldose reductase = target: T1, aldose reductase (Bos taurus, UniProt P16116); assay: in vitro inhibition of aldose reductase from bovine lens (modified Hayman and Kinoshita procedure); format: biochemical; conditions: 10^-7 M
T1 construct: preparation of the enzyme from bovine lens; from tissue; host or cells: bovine lens
Description: Only two minor reagent changes were made: (a) The rinsing mixture was an aqueous 5% (w/v) trichloroacetic acid solution and (b) the stock solution was prepared by dissolving 25 mg of dulcitol in 100 mL of an aqueous trichloroacetic acid solution. [N.B.: For each experiment the average value found in the tissue from rats fed the glucose diet was subtracted from the individual values found in the corresponding tissue in galactose-fed rats to obtain the amount of polyol accumulated.] […] In the present case the procedure of Hayman and Kinoshita was modified in that the final chromatography step was omitted in the preparation of the enzyme from bovine lens.

[2] = tested on: sciatic nerves of rats fed galactose; assay: galactosemic rats: lowering of galactitol (dulcitol) accumulation in the sciatic nerve; format: in vivo, rat (Sprague-Dawley); conditions: for % lowering dulcitol accumulation in vivo, N (sciatic nerve): four days, vs untreated galactosemic rats
Text: as §1, §2, §3, §4, §5

## COc1ccc2c(C(=NC#N)N(C)CC(=O)O)cccc2c1C(F)(F)F [Example 4, N-[(Cyanoimino)[6-methoxy-5-(trifluoromethyl)-1-naphthalenyl]methyl]-N-methylglycine]
[1]; 26 mg/kg/day p.o.
  % lowering dulcitol accumulation in vivo, L (lens): 0%
[1]; 100 mg/kg/day p.o.
  % lowering dulcitol accumulation in vivo, L (lens): 0%
Aldose reductase
  inhibition at 0.1 µM: 80%
[2]; 26 mg/kg/day p.o.
  % lowering dulcitol accumulation in vivo, N (sciatic nerve): 30%
[2]; 100 mg/kg/day p.o.
  % lowering dulcitol accumulation in vivo, N (sciatic nerve): 61%
[2]; 100 mg/kg/day vs tolrestat at 6.4 mg/kg/day
  lowering of polyol accumulation compared with tolrestat (in words): comparable results

## COc1ccc2c(C(=NS(=O)(=O)C(F)(F)F)N(C)CC(=O)O)cccc2c1C(F)(F)F [Example 5, N-[[6-Methoxy-5-(trifluoromethyl)-1-naphthalenyl][[(trifluoromethyl)sulfonyl]imino]methyl]-N-methylglycine]
[1]; 56 mg/kg/day p.o.
  % lowering dulcitol accumulation in vivo, L (lens): 0%
Aldose reductase
  inhibition at 0.1 µM: 69%
[2]; 56 mg/kg/day p.o.
  % lowering dulcitol accumulation in vivo, N (sciatic nerve): 0%

## COc1ccc2c(C(=NS(=O)(=O)c3ccc(Br)cc3)N(C)CC(=O)O)cccc2c1C(F)(F)F [Example 6, N-[[[(4-Bromophenyl)sulfonyl]imino][6-methoxy-5-(trifluoromethyl)-1-naphthalenyl]methyl]-N-methylglycine]
[1]; 55 mg/kg/day p.o.
  % lowering dulcitol accumulation in vivo, L (lens): 0%
Aldose reductase
  inhibition at 0.1 µM: 5%
[2]; 55 mg/kg/day p.o.
  % lowering dulcitol accumulation in vivo, N (sciatic nerve): 0%

## COc1ccc2c(C(=S)N(C)CC(=O)O)cccc2c1C(F)(F)F [tolrestat, N-[[6-methoxy-5-(trifluoromethyl)-1-naphthalenyl]thioxomethyl]-N-methylglycine, reference compound]
[1]; 6.4 mg/kg/day p.o.
  % lowering dulcitol accumulation in vivo, L (lens): 0%
[2]; 6.4 mg/kg/day p.o.
  % lowering dulcitol accumulation in vivo, N (sciatic nerve): 50%
